The structures appear in SMILES notation. “And” between values parts separate entries of the source, which are not always exact repeats. Equal entries are not always repeated.

The target in this assay is T1, CCR2 (Homo sapiens, UniProt P41597).
T1 sequence (P41597 1-360 isoform P41597-2): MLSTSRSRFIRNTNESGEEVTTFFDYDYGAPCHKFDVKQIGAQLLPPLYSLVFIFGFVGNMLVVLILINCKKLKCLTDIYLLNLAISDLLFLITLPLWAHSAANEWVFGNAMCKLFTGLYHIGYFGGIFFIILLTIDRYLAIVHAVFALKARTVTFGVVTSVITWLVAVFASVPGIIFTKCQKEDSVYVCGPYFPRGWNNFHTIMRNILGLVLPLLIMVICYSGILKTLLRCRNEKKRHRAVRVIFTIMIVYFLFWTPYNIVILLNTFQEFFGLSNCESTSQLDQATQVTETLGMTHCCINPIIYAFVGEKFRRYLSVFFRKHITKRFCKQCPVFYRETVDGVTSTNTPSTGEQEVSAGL
Description: MCP-1 Receptor Binding Assay in THP-1 Cells. Particulars: for IC50: THP-1 cells, 0.5 nM 125I labeled MCP-1, 2 hours at 30° C., read-out: Mean Ligand Binding IC50 (inhibition of MCP-1 binding to CCR2); for inhibition at 25 µM: MCP-1 binding to CCR2, test concentration of 25 μM, unless indicated otherwise, read-out: % Inhibition Ligand Binding. On the procedure:
THP-1 cells were obtained from American Type Culture Collection (Manassas, Va., USA). […] The cell density was maintained between 0.5×10^6 cells/mL.
Cells were then harvested onto a filter plate, dried, and 20 μL of Microscint 20 was added to each well. Plates were counted in a TopCount NXT, Microplate Scintillation & Luminescence Counter (Perkin-Elmer Life Sciences, Inc. Boston, Mass.). Blank values (buffer only) were subtracted from all values and drug treated values were compared to vehicle treated values. 1 μM cold MCP-1 was used for nonspecific binding.

Regarding `C[N+]1(Cc2ccc(NC(=O)c3ccc(Cl)c(Cl)c3)cc2)CCCC1` [Cpd 51, 1-[4-(3,4-dichloro-benzoylamino)-benzyl]-1-methyl-pyrrolidinium iodide], the IC50 – broadly, the point on the concentration scale where inhibition reaches its midpoint – was determined as 2.7 µM.
With `C[N+]1(Cc2cccc(NC(=O)C=Cc3cccc(Br)c3)c2)CCCCC1` [Cpd 52, 1-{3-[3-(3-bromo-phenyl)-acryloylamino]-benzyl}-1-methyl-piperidinium iodide], the IC50 amounted to 2.6 µM.
Same read-out and setting: with `C[N+]1(Cc2ccc(NC(=O)C=Cc3ccc(Cl)c(Cl)c3)cc2)CCCCC1` [Cpd 53, 1-{4-[3-(3,4-dichloro-phenyl)-acryloylamino]-benzyl}-1-methyl-piperidinium iodide] the figure was 3.2 µM; with `C[N+]1(Cc2ccc(NC(=O)C=Cc3cccc(Br)c3)cc2)CCCCC1` [Cpd 55, 1-{4-[3-(3-bromo-phenyl)-acryloylamino]-benzyl}-1-methyl-piperidinium iodide], 5.4 µM; with `C[N+]1(Cc2cccc(NC(=O)c3cccc(C(F)(F)F)c3)c2)CCCCC1` [Cpd 56, 1-methyl-1-[3-(3-trifluoromethyl-benzoylamino)-benzyl]-piperidinium iodide], 11.8 µM.
On the same count and under the same terms, with `C[N+]1(Cc2ccc(NC(=O)C=Cc3cccc(C(F)(F)F)c3)cc2)CCCCC1` [Cpd 57, 1-methyl-1-{4-[3-(3-trifluoromethyl-phenyl)-acryloylamino]-benzyl}-piperidinium iodide] the figure was 13.3 µM.
As to `C[N+]1(Cc2ccc(CNC(=O)C=Cc3ccc(Cl)c(Cl)c3)cc2)CCOCC1` [Cpd 58, 4-(4-{[3-(3,4-dichloro-phenyl)-acryloylamino]-methyl}-benzyl)-4-methyl-morpholin-4-ium iodide], the inhibition (usually the relative decrease from the control value, in per cent) at 25 µM was determined as 53%.
For the compound `C[N+]1(Cc2ccc(NC(=O)c3ccc(Cl)c(Cl)c3)cc2)CCOCC1` [Cpd 59, 4-[4-(3,4-dichloro-benzoylamino)-benzyl]-4-methyl-morpholin-4-ium iodide], the IC50 worked out at 10 µM.
As for `C[N+]1(Cc2ccc(NC(=O)C=Cc3ccc(Cl)c(Cl)c3)cc2)CCOCC1` [Cpd 60, 4-{4-[3-(3,4-dichloro-phenyl)-acryloylamino]-benzyl}-4-methyl-morpholin-4-ium iodide], the inhibition at 25 µM worked out at 20%.
With `C[N+]1(Cc2ccc(NC(=O)C=Cc3cccc(Br)c3)cc2)CCOCC1` [Cpd 61, 4-{4-[3-(3-bromo-phenyl)-acryloylamino]-benzyl}-4-methyl-morpholin-4-ium iodide], the IC50 came to 2.7 µM.
On to `C[N+]1(Cc2ccc(CNC(=O)C=Cc3cccc(C(F)(F)F)c3)cc2)CCOCC1` [Cpd 62, 4-methyl-4-(4-{[3-(3-trifluoromethyl-phenyl)-acryloylamino]-methyl}-benzyl)-morpholin-4-ium iodide], for which the inhibition at 25 µM was 9%.
Take `C=CC[N+](C)(Cc1ccc(NC(=O)C=Cc2cccc(Br)c2)cc1)C1CCSCC1` (centres unmarked) [Cpd 63, allyl-{4-[3-(3-bromo-phenyl)-acryloylamino]-benzyl}-methyl-(tetrahydro-thiopyran-4-yl)-ammonium iodide]: the IC50 came to 3.5 µM.
Regarding `C[N+](C)(Cc1ccc(CNC(=O)C=Cc2cccc(C(F)(F)F)c2)cc1)C1CCOCC1` [Cpd 64, dimethyl-(tetrahydro-pyran-4-yl)-(4-{[3-(3-trifluoromethyl-phenyl)-acryloylamino]-methyl}-benzyl)-ammonium iodide], the inhibition at 25 µM came to 63%.
Turning to `C[N+](C)(Cc1cccc(NC(=O)c2cccc(C(F)(F)F)c2)c1)C1CCOCC1` [Cpd 65, dimethyl-(tetrahydro-pyran-4-yl)-[3-(3-trifluoromethyl-benzoylamino)-benzyl]-ammonium iodide], the inhibition at 25 µM was 61%.
As to `Cc1cccc(C=CC(=O)Nc2ccc(C[N+](C)(C)C3CCOCC3)cc2)c1` [Cpd 66, dimethyl-(tetrahydro-pyran-4-yl)-[4-(3-m-tolyl-acryloylamino)-benzyl]-ammonium iodide], the 50% inhibitory concentration (IC50) was 1.7 µM.
On the same count and under the same terms, with `C[N+](C)(Cc1ccc(NC(=O)C=Cc2cccc(C(F)(F)F)c2)cc1)C1CCOCC1` [Cpd 68, dimethyl-(tetrahydro-pyran-4-yl)-{4-[3-(3-trifluoromethyl-phenyl)-acryloylamino]-benzyl}-ammonium iodide] the figure was 1.5 µM; with `C[N+](C)(Cc1ccc(NC(=O)C=Cc2ccc(Cl)c(Cl)c2)cc1)C1CCCCC1` [Cpd 71, cyclohexyl-{4-[3-(3,4-dichloro-phenyl)-acryloylamino]-benzyl}-dimethyl-ammonium iodide], 0.17 µM and 0.32 µM; with `C[N+](C)(Cc1ccc(NC(=O)C=Cc2cccc(Br)c2)cc1)C1CCCCC1` [Cpd 72, {4-[3-(3-bromo-phenyl)-acryloylamino]-benzyl}-cyclohexyl-dimethyl-ammonium iodide], 0.58 µM.
As to `C[N+](C)(Cc1ccc(NC(=O)c2cccc(Br)c2)cc1)C1CCCCC1` [Cpd 73, [4-(3-bromo-benzoylamino)-benzyl]-cyclohexyl-dimethyl-ammonium iodide], the IC50 worked out at 0.44 µM.
As for `C[N+](C)(Cc1ccc(NC(=O)c2cccc(C(F)(F)F)c2)cc1)C1CCCCC1` [Cpd 74, cyclohexyl-dimethyl-[4-(3-trifluoromethyl-benzoylamino)-benzyl]-ammonium iodide], the concentration for half-maximal inhibition (IC50) was found to be 1.5 µM.
Still for that read-out and setting: with `C[N+](C)(Cc1ccc(NC(=O)c2ccc(F)c(Cl)c2)cc1)C1CCCCC1` [Cpd 76, [4-(3-chloro-4-fluoro-benzoylamino)-benzyl]-cyclohexyl-dimethyl-ammonium iodide] the figure was 0.16 µM.
As for `C[N+](C)(Cc1ccc(NC(=O)c2cccc(Cl)c2Cl)cc1)C1CCCCC1` [Cpd 77, cyclohexyl-[4-(2,3-dichloro-benzoylamino)-benzyl]-dimethyl-ammonium iodide], the inhibition at 25 µM is 53%.
`C[N+](C)(Cc1ccc(NC(=O)c2c(Cl)cccc2Cl)cc1)C1CCCCC1` [Cpd 78, cyclohexyl-[4-(2,6-dichloro-benzoylamino)-benzyl]-dimethyl-ammonium iodide]: the IC50 was 13.4 µM.
Regarding `COc1ccc(C(=O)Nc2ccc(C[N+](C)(C)C3CCCCC3)cc2)cc1Cl` [Cpd 79, [4-(3-chloro-4-methoxy-benzoylamino)-benzyl]-cyclohexyl-dimethyl-ammonium iodide], the half-inhibitory concentration (IC50) stood at 0.31 µM.
The same measure, in the same setting: with `Cc1ccc(C(=O)Nc2ccc(C[N+](C)(C)C3CCCCC3)cc2)cc1Cl` [Cpd 80, [4-(3-chloro-4-methyl-benzoylamino)-benzyl]-cyclohexyl-dimethyl-ammonium iodide] the figure was 0.03 µM.
Turning to `C[N+](C)(Cc1ccc(NC(=O)c2cc(Cl)ccc2Cl)cc1)C1CCCCC1` [Cpd 81, cyclohexyl-[4-(2,5-dichloro-benzoylamino)-benzyl]-dimethyl-ammonium iodide], the half-inhibitory concentration (IC50) is 3 µM.
Still for that read-out and setting: with `C[N+](C)(Cc1cccc(NC(=O)C=Cc2ccc(Cl)c(Cl)c2)c1)C1CCCCC1` [Cpd 83, cyclohexyl-{3-[3-(3,4-dichloro-phenyl)-acryloylamino]-benzyl}-dimethyl-ammonium iodide] the figure was 1.2 µM; with `C[N+](C)(Cc1cccc(NC(=O)C=Cc2ccc(F)cc2)c1)C1CCCCC1` [Cpd 84, cyclohexyl-{3-[3-(4-fluoro-phenyl)-acryloylamino]-benzyl}-dimethyl-ammonium iodide], 3.2 µM; with `C[N+](C)(Cc1ccc(NC(=O)c2cccc(-c3ccc(C(F)(F)F)cc3)c2)cc1)C1CCOCC1` [Cpd 85, dimethyl-(tetrahydro-pyran-4-yl)-{4-[(4′-trifluoromethyl-biphenyl-3-carbonyl)-amino]-benzyl}-ammonium iodide], 5.2 µM.
As for `Cc1ccc(-c2cccc(C(=O)Nc3ccc(C[N+](C)(C)C4CCCCC4)cc3)c2)cc1` [Cpd 86, cyclohexyl-dimethyl-{4-[(4′-methyl-biphenyl-3-carbonyl)-amino]-benzyl}-ammonium iodide], the IC50 worked out at 6 µM.
As for `C[N+](C)(Cc1ccc(NC(=O)c2ccc(-c3ccccc3)cc2)cc1)C1CCOCC1` [Cpd 88, {4-[(biphenyl-4-carbonyl)-amino]-benzyl}-dimethyl-(tetrahydro-pyran-4-yl)-ammonium iodide], the IC50 was found to be 0.87 µM.
In the case of `C[N+](C)(Cc1ccc(NC(=O)c2cccc3ccccc23)cc1)C1CCOCC1` [Cpd 89, dimethyl-{4-[(naphthalene-1-carbonyl)-amino]-benzyl}-(tetrahydro-pyran-4-yl)-ammonium iodide], the inhibition at 25 µM turned out to be 29%.
With `C[N+](C)(Cc1ccc(NC(=O)c2ccc3ccccc3c2)cc1)C1CCOCC1` [Cpd 90, dimethyl-{4-[(naphthalene-2-carbonyl)-amino]-benzyl}-(tetrahydro-pyran-4-yl)-ammonium iodide], the IC50 is 0.22 µM.
Same read-out and setting: with `CC[N+](C)(Cc1ccc(NC(=O)c2ccc3ccccc3c2)cc1)C1CCOCC1` (centres unmarked) [Cpd 91, ethyl-methyl-{4-[(naphthalene-2-carbonyl)-amino]-benzyl}-(tetrahydro-pyran-4-yl)-ammonium iodide] the figure was 4.1 µM.
For `CCC[N+](C)(Cc1ccc(NC(=O)c2ccc3ccccc3c2)cc1)C1CCOCC1` (centres unmarked) [Cpd 92, methyl-{4-[(naphthalene-2-carbonyl)-amino]-benzyl}-propyl-(tetrahydro-pyran-4-yl)-ammonium iodide], the inhibition at 25 µM was found to be 54%.

(Values after patent publication US7799824B2, “Quaternary salt CCR2 antagonists” (OraPharma, Inc., priority 2004, dated 2010).)
